Results published in patent publication US12023333B2, “Phenyl-sulfamoyl.benzoyc acids as ERAP1 modulators” (GREY WOLF THERAPEUTICS LIMITED, priority 2019, dated 2024).

These compounds were tested against T1, Purified ERAP1(37-941)-10His (ERAP1) (Homo sapiens, UniProt Q9NZ08) (assay: ERAP1 mediated hydrolysis of an amide substrate measured in a biochemical system (10-mer decapeptide substrate)). Conditions: 10-mer substrate, 23° C. for 1 h, excitation 279 nm and emission 355 nm; read-out: IC50 vs Decapeptide WRVYEKC(Dnp)ALK-acid (where Dnp is Dinitrophenyl maleimide) (10-mer).
T1 construct: Purified ERAP1(37-941)-10His (ERAP1); 10His (C)
T1 sequence (Q9NZ08 37-941): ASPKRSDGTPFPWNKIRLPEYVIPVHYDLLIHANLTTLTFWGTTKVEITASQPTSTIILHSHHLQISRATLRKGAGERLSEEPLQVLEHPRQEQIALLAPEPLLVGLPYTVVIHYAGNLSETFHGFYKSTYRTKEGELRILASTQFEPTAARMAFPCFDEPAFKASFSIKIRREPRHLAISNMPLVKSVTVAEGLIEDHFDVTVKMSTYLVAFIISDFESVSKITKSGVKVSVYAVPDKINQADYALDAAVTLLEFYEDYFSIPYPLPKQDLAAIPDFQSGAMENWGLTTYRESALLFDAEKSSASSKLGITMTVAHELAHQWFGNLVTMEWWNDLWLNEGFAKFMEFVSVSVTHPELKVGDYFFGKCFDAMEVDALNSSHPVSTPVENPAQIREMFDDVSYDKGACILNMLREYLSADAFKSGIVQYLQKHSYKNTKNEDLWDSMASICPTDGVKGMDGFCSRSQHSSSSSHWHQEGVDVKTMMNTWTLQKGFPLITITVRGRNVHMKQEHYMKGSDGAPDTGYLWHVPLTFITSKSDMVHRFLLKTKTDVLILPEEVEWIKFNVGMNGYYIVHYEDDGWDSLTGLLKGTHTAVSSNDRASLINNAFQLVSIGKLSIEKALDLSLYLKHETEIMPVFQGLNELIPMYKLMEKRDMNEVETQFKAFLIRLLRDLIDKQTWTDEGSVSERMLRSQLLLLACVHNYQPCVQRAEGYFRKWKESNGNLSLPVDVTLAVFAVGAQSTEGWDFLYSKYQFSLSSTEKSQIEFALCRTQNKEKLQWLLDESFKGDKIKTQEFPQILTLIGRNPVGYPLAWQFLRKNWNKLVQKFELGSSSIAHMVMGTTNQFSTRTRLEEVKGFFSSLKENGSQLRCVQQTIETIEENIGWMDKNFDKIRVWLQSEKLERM
Outline: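 ERAP1(37-941)-10His preincubated with compound in 25 mM Bis-tris propane, 0.05% HPMC, pH 7.75, then reacted 1 h at 23 °C with 10-mer WRVYEKC(Dnp)ALK (100 μM solution added in equal volume). Fluorescence read at ex 279/em 355 nm; IC50 from 4-parameter fit.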

SMILES	IC50
Cc1oncc1-c1ccc(-n2cccc2)c(NS(=O)(=O)c2cc(C(=O)O)ccc2C2CC2)c1 [Example 194, 4-cyclopropyl-3-(N-(5-(5-methylisoxazol-4-yl)-2-(pyrrol-1-yl)phenyl)sulfamoyl)benzoic acid]	< 500 nM
COc1ccc(C(=O)O)cc1S(=O)(=O)Nc1cc(C(F)(F)F)ccc1-c1cc(C)nn1C [Example 4, 3-(N-(2-(1,3-dimethylpyrazol-5-yl)-5-(trifluoromethyl)phenyl)sulfamoyl)-4-methoxybenzoic acid]	< 5000 nM
O=C(O)c1ccc(C2CC2)c(S(=O)(=O)Nc2cc(-c3ccns3)ccc2-c2ccc(Cl)s2)c1 [Example 141, 3-(N-(2-(5-chlorothiophen-2-yl)-5-(isothiazol-5-yl)phenyl)sulfamoyl)-4-cyclopropylbenzoic acid]	< 500 nM
N#Cc1ccc(-c2cccc(F)c2)c(NS(=O)(=O)c2cc(C(=O)O)ccc2C2CC2)c1 [Example 94, 3-(N-(4-cyano-3′-fluoro-[1,1-biphenyl]-2-yl)sulfamoyl)-4-cyclopropylbenzoic acid]	< 500 nM
N#Cc1cc(NS(=O)(=O)c2cc(C(=O)O)ccc2C2CC2)c(-c2ncccn2)cc1F [Example 182, 3-(N-(5-cyano-4-fluoro-2-(pyrimidin-2-yl)phenyl)sulfamoyl)-4-cyclopropylbenzoic acid]	< 500 nM
COc1ccc(C(=O)O)cc1S(=O)(=O)Nc1cc(C(F)(F)F)ccc1-c1ccc(C)cc1 [Example 47, 4-methoxy-3-(N-(4′-methyl-4-(trifluoromethyl)-[1,1′-biphenyl]-2-yl)sulfamoyl)benzoic acid]	> 5000 nM
O=C(O)c1ccc(C2CC2)c(S(=O)(=O)Nc2cc(-c3ccns3)c(Cl)cc2-n2cccc2)c1 [Example 203, 3-(N-(4-chloro-5-(isothiazol-5-yl)-2-(pyrrol-1-yl)phenyl)sulfamoyl)-4-cyclopropylbenzoic acid]	< 500 nM
CCc1ccc(C(=O)O)cc1S(=O)(=O)Nc1cc(C#N)ccc1-c1cccs1 [Example 43, 3-(N-(5-cyano-2-(thiophen-2-yl)phenyl)sulfamoyl)-4-ethylbenzoic acid]	< 500 nM
Cc1oncc1-c1cc(NS(=O)(=O)c2cc(C(=O)O)ccc2C2CC2)c(-n2cccc2)cc1F [Example 202, 4-cyclopropyl-3-(N-(4-fluoro-5-(5-methylisoxazol-4-yl)-2-(pyrrol-1-yl)phenyl)sulfamoyl)benzoic acid]	< 500 nM
N#Cc1cc(NS(=O)(=O)c2cc(C(=O)O)ccc2C2CC2)c(-n2cccc2)cc1F [Example 157, 3-(N-(5-cyano-4-fluoro-2-(pyrrol-1-yl)phenyl)sulfamoyl)-4-cyclopropylbenzoic acid]	< 500 nM
Cc1sncc1-c1ccc(-c2cccnc2)c(NS(=O)(=O)c2cc(C(=O)O)ccc2C2CC2)c1 [Example 138, 4-cyclopropyl-3-(N-(5-(5-methylisothiazol-4-yl)-2-(pyridin-3-yl)phenyl)sulfamoyl)benzoic acid]	< 500 nM
Cc1sncc1-c1ccc(-c2ccc(Cl)s2)c(NS(=O)(=O)c2cc(C(=O)O)ccc2C2CC2)c1 [Example 149, 3-(N-(2-(5-chlorothiophen-2-yl)-5-(5-methylisothiazol-4-yl)phenyl)sulfamoyl)-4-cyclopropylbenzoic acid]	< 500 nM
Cc1sncc1-c1ccc(-c2cccc(F)c2)c(NS(=O)(=O)c2cc(C(=O)O)ccc2C2CC2)c1 [Example 136, 4-cyclopropyl-3-(N-(3′-fluoro-4-(5-methylisothiazol-4-yl)-[1,1′-biphenyl]-2-yl)sulfamoyl)benzoic acid]	< 500 nM
N#Cc1cc(NS(=O)(=O)c2cc(C(=O)O)ccc2C2CC2)c(-n2cccc2)cc1Cl [Example 161, 3-(N-(4-chloro-5-cyano-2-(pyrrol-1-yl)phenyl)sulfamoyl)-4-cyclopropylbenzoic acid]	< 500 nM
CCc1ccc(C(=O)O)cc1S(=O)(=O)Nc1cc(C(F)(F)F)ccc1-n1cncn1 [Example 29, 3-(N-(2-(1,2,4-triazol-1-yl)-5-(trifluoromethyl)phenyl)sulfamoyl)-4-ethylbenzoic acid]	< 5000 nM
Cn1nccc1-c1cc(NS(=O)(=O)c2cc(C(=O)O)ccc2C2CC2)c(-n2cccc2)cc1F [Example 199, 4-cyclopropyl-3-(N-(4-fluoro-5-(1-methylpyrazol-5-yl)-2-(pyrrol-1-yl)phenyl)sulfamoyl)benzoic acid]	< 500 nM
CCc1ccc(C(=O)O)cc1S(=O)(=O)Nc1cc(C(F)(F)F)c(Cl)cc1-n1cccc1 [Example 131, 3-(N-(4-chloro-2-(pyrrol-1-yl)-5-(trifluoromethyl)phenyl)sulfamoyl)-4-ethylbenzoic acid]	< 500 nM
N#Cc1ccc(-c2cccnn2)c(NS(=O)(=O)c2cc(C(=O)O)ccc2C2CC2)c1 [Example 165, 3-(N-(5-cyano-2-(pyridazin-3-yl)phenyl)sulfamoyl)-4-cyclopropylbenzoic acid]	< 500 nM
O=C(O)c1ccc(C2CC2)c(S(=O)(=O)Nc2cc(C(F)(F)F)ccc2-c2ccccc2)c1 [Example 55, 4-cyclopropyl-3-(N-(4-(trifluoromethyl)-[1,1′-biphenyl]-2-yl)sulfamoyl) benzoic acid]	< 500 nM
Cn1ncnc1-c1cc(NS(=O)(=O)c2cc(C(=O)O)ccc2C2CC2)c(-n2cccc2)cc1Cl [Example 204, 3-(N-(4-chloro-5-(1-methyl-1,2,4-triazol-5-yl)-2-(pyrrol-1-yl)phenyl)sulfamoyl)-4-cyclopropylbenzoic acid]	< 500 nM
Cn1ncnc1-c1cc(NS(=O)(=O)c2cc(C(=O)O)ccc2C2CC2)c(-n2cccc2)cc1F [Example 201, 4-cyclopropyl-3-(N-(4-fluoro-5-(1-methyl-1,2,4-triazol-5-yl)-2-(pyrrol-1-yl)phenyl)sulfamoyl)benzoic acid]	< 500 nM
COc1ccc(C(=O)O)cc1S(=O)(=O)Nc1cc(C(F)(F)F)ccc1-c1ccccn1 [Example 26, 4-methoxy-3-(N-(2-(pyridin-2-yl)-5-(trifluoromethyl)phenyl)sulfamoyl) benzoic acid]	< 500 nM
N#Cc1ccc(-c2cccnc2)c(NS(=O)(=O)c2cc(C(=O)O)ccc2C2CC2)c1 [Example 97, 3-(N-(5-cyano-2-(pyridin-3-yl)phenyl)sulfamoyl)-4-cyclopropylbenzoic acid]	< 500 nM
O=C(O)c1ccc(C2CC2)c(S(=O)(=O)Nc2cc(C(F)(F)F)ccc2-c2ccc(F)s2)c1 [Example 122, 4-cyclopropyl-3-(N-(2-(5-fluorothiophen-2-yl)-5-(trifluoromethyl)phenyl)sulfamoyl)benzoic acid]	< 500 nM
CCc1ccc(C(=O)O)cc1S(=O)(=O)Nc1cc(C(F)(F)F)ccc1-c1ncccn1 [Example 68, 4-ethyl-3-(N-(2-(pyrimidin-2-yl)-5-(trifluoromethyl)phenyl)sulfamoyl)benzoic acid]	< 500 nM
N#Cc1ccc(-n2cccc2)c(NS(=O)(=O)c2cc(C(=O)O)ccc2C2CC2)c1 [Example 109, 3-(N-(5-cyano-2-(pyrrol-1-yl)phenyl)sulfamoyl)-4-cyclopropylbenzoic acid]	< 500 nM
COc1ccc(C(=O)O)cc1S(=O)(=O)Nc1cc(C#N)ccc1-n1cccc1 [Example 121, 3-(N-(5-cyano-2-(pyrrol-1-yl)phenyl)sulfamoyl)-4-methoxybenzoic acid]	< 500 nM
